Consider nine molecules from patent US10647664B2, “Substituted hydroxamic acid compounds” (Duke University, priority 2013, dated 2020).

Converted amounts (≈) assume the structure as drawn.

The test system of assay [1] is K. pneumonia (43816). As to the kind of experiment: MIC, K. pneumonia (43816). Type of assay: cell-based. On the procedure: (§1) MICs are determined according to the NCCLS protocol using 96-well plates. Briefly, diluted bacterial cells (10^6 cells/mL) are added into each well of the 96-well plates containing LB medium with 5% DMSO and various concentrations of the compound of disclosure. After incubation of the plates for 22 hours at 37° C., [4,5-dimethylthiazol-2-yl]-2,5-diphenyltetrazolium bromide solution (MTT) is added (final concentration, 0.2 mg/mL) and incubated at 37° C. for another 3 hrs. MIC is determined as the lowest concentration of an antibiotic that prevented color change (yellow to purple).
(§2) Additional results of minimum inhibitory concentrations (MICs) using V. cholera (P4), S. typhimurium (LT2), and K. pneumonia (43816) are shown in Table 2

For assay [2], the system named is S. typhimurium (LT2). Nature of the assay: MIC, S. typhimurium (LT2). Type of assay: cell-based. Here is the method:
as §1, §2

In assay [3] the test system is V. cholera (P4). Nature of the assay: MIC, V. cholera (P4). It counts as cell-based. Further details: unit not given beside the values. Here is the method: as §1, §2
Assay [4] deals with P. aeruginosa PA01. Nature of the assay: MIC, P. aeruginosa PA01. It counts as cell-based. Conditions: Pseudomonas aeruginosa.
The test system of assay [5] is wild-type E. coli (W3110). As to the kind of experiment: Minimum inhibitory concentration (MIC), E. coli W3110. It counts as cell-based. Conditions: LB medium, 5% DMSO, 22 hours at 37° C., MTT; for MIC: Escherichia coli, 22 h.
Assay [6] deals with F. novicida U112 (FNU112). Nature of the assay: microbe, parasite or virus in culture. Type of assay: cell-based. The conditions noted are these: Francisella tularensis, read-out: MIC FNU112, F. novicida U112.
The test system of assay [7] is N. gonorrhoeae 35/02 (drug-resistant strain). The conditions noted are these: N. gonorrhoeae strain 35/02; description of the strain's resistance; cited from earlier work.

Turning to `C[C@@H](O)[C@](C)(NC(=O)c1ccc(C#CC#Cc2ccc(N)cc2)cc1)C(=O)NO` [Example 1, 4-((4-aminophenyl)buta-1,3-diynyl)-N-(3-hydroxy-1-(hydroxyamino)-2-methyl-1-oxobutan-2-yl)benzamide], the “MIC K. pneumonia (43816)” value in assay [1] is 0.6. In assay [2], the “MIC S. typhimurium (LT2)” value is given as 0.144. Also, the “MIC V. cholera (P4)” value in assay [3] stood at 0.03. Moreover, the MIC came out at 15 µg/mL (≈ 38.3 µM) in assay [4] (PA01); 6.25 µg/mL (≈ 16 µM) in assay [4] (PA01, P. aeruginosa PA01); 0.18 µg/mL (≈ 0.46 µM) in assay [5]. In assay [5], the “MIC E. coli W3110” value was 0.13 µg/mL (≈ 0.332 µM).

Turning to `CC(NC(=O)c1ccc(C#Cc2ccc(CN3CCOCC3)cc2)cc1)(C(=O)NO)C(C)(O)C(F)F` (centres unmarked) [Example 2, N-(4,4-difluoro-3-hydroxy-1-(hydroxyamino)-2,3-dimethyl-1-oxobutan-2-yl)-4-((4-(morpholinomethyl)phenyl)ethynyl)benzamide], the MIC in assay [6] amounted to 50 µg/mL (≈ 99.7 µM); in assay [5], 6.25 µg/mL (≈ 12.5 µM).

With `C[C@@](O)(C(F)F)[C@H](NCCCc1ccc(C#Cc2ccccc2)cc1)C(=O)NO` [Example 3, (2S,3S)-4,4-difluoro-N,3-dihydroxy-3-methyl-2-((3-(4-(phenylethynyl)phenyl)propyl)amino)butanamide], the MIC in assay [5] was found to be 1.6 µg/mL (≈ 3.98 µM).

Consider `C[C@@](O)(C(F)F)[C@H](NC(=O)c1ccc(C#Cc2ccc(CN3CCNCC3)cc2)cc1)C(=O)NO` [Example 19], for which the MIC was 2.5 µg/mL (≈ 5.14 µM) in assay [6], greater than 5 µg/mL in assay [4] (PA01) and greater than 1 µg/mL in assay [5].

For `C[C@@](O)(C(F)F)[C@H](NC(=O)c1ccc(C#CC#CCN2CCOCC2)cc1)C(=O)NO` [Example 21, N-((2S,3S)-4,4-difluoro-3-hydroxy-1-(hydroxyamino)-3-methyl-1-oxobutan-2-yl)-4-(5-morpholinopenta-1,3-diyn-1-yl)benzamide], the MIC is greater than 5 µg/mL in assay [6], 1.56 µg/mL (≈ 3.58 µM) in assay [4] (PA01) and 0.46 µg/mL (≈ 1.06 µM) in assay [5].

In the case of `CC(C#CC#Cc1ccc(C(=O)N[C@H](C(=O)NO)[C@](C)(O)C(F)F)cc1)N1CCOCC1` (stereo partly drawn) [Example 22, N-((2S,3S)-4,4-difluoro-3-hydroxy-1-(hydroxyamino)-3-methyl-1-oxobutan-2-yl)-4-(5-morpholinohexa-1,3-diyn-1-yl)benzamide], the MIC in assay [6] is greater than 5 µg/mL; in assay [4] (PA01), 5 µg/mL (≈ 11.1 µM); in assay [5], greater than 1 µg/mL.

Consider `CC(CCn1ccc(C#Cc2ccccc2)cc1=O)(C(=O)NO)S(C)(=O)=O` (centres unmarked) [Example 30, N-hydroxy-2-methyl-2-(methylsulfonyl)-4-(2-oxo-4-(phenylethynyl)pyridin-1 (2H)-yl)butanamide], for which the MIC in assay [4] (PA01) and in assay [5] was less than 0.78 µg/mL in each case.

Turning to `CO/N=C(\C(=O)N[C@@H]1C(=O)N2C(C(=O)O)=C(CSc3nc(=O)c(=O)[nH]n3C)CS[C@H]12)c1csc(N)n1` [ceftriaxone], the MIC in assay [7] is 0.12 µg/mL (≈ 0.216 µM).

On to penicillin, for which, in assay [7], the MIC was 6 µg/mL.
